Source: patent publication US7595330B2, “Benzimidazole thiophene compounds” (SmithKline Beecham Corporation, priority 2005, dated 2009)

Experiments:
[1] = High throughput solubility assay; assay type: physicochemical; settings: aqueous buffer, pH 7.4, 0.05M phosphate buffer
Procedure: IV. High Throughput Solubility Assay
Two samples are prepared for each compound. One (the standard sample) contains the compound at a fixed concentration of 20 μM in an aqueous/organic mixed solvent cocktail. The other (the test sample) contains the compound at a maximum concentration of 200 μM in pH 7.4, 0.05M phosphate buffer and shaking for 24 h. The test sample is filtered by 0.45μ filter and then spun for 10 min to remove any undissolved solid. HPLC analyses are preformed on these samples. The peak areas are used for computing solubility.

[2] = system: COLO205; experiment: Cell-Titer-Glo inhibition of cell proliferation, COLO205; assay type: cell-based; settings: Homo sapiens, COLO 205, CellTiter-Glo, 72 h
Procedure: (§1) V. Cell-Titer-Glo—Inhibition of Cell Proliferation by PLK1 Inhibitors
(§2) Exponentially growing cell lines of different tumor origins, cultured in appropriate media containing 10% fetal bovine serum at 37° C. in a 5% CO2 incubator were plated at low density (less than 2000 cells/well) in 96-well plates. Twenty four hours post-plating, cells were treated with different concentrations of test compounds ranging from 10 uM to 0.04 nM. Several wells were left untreated as a control. Seventy two hours post-treatment, cell numbers were determined using 50-100 ul per well of CellTiter-Glo (Promega #G7573). Plates were incubated at room temperature for 15 minutes and the chemiluminescent signal was read on the Victor V or Envison 2100 reader.
(§3) The Cell-Titer Glo data are shown in Table 2 below and represent a compilation of several different experiments, each performed using the general parameters outlined above, although minor variations may have been employed in some instances.

[3] = system: human plasma proteins; experiment: Protein binding to human plasma proteins using equilibrium dialysis; assay type: in vitro ADME; settings: pH 7.4, equilibrium dialysis 6 h, 37° C.
Procedure: III. Determination of Protein Binding to Human Plasma Proteins Using Equilibrium Dialysis
96 Well Plate (High Throughput Dialysis): Stock solutions of compounds were spiked into human plasma at a target concentration of 2000 ng/mL. The mixture was inverted gently several times to insure homogeneity and triplicate 50 μL aliquots were collected to verify initial concentrations. Following assembly of dialysis plate (HTDialysis membrane strips, molecular weight cut off limit of 12,000-14,000 daltons), spiked plasma (150 μL) was placed in the donor compartment of the well and Phosphate Buffered Saline pH 7.4 (150 μL) in the receiver compartment. Eight wells were set up per compound and plasma type. Plate was placed in a 37° C. incubator on a plate shaker. Following the 6 h incubation period, the plate was removed. Single 50 μL aliquots from each donor and receiver compartment (per well) were analyzed. Sample analysis was by LC/MS/MS (results reported as Drug Peak Area/Internal Standard Peak Area ratios). Protein binding assay can also be performed using dialysis cells instead of HT Dialysis 96 well plates. In Table 1, % Protein Binding, +=>98%; ++=95-98%: +++=<95%.

[4] = system: HN5; experiment: Cell-Titer-Glo inhibition of cell proliferation, HN5; assay type: cell-based; settings: Homo sapiens, CellTiter-Glo, 72 h
Procedure: as §1, §2, §3

[5] = system: A549; experiment: Methylene blue growth inhibition assay, A549; assay type: cell-based; settings: Homo sapiens; methylene blue, 72 h, A549; read-out: A549 IC50
Procedure: II. Methylene Blue Growth Inhibition Assay—Inhibition of Cell Proliferation by PLK1 Inhibitors
Generally, exponentially growing cell lines of different tumor origins, cultured in appropriate media containing 10% fetal bovine serum at 37° C. in a 5% CO2 incubator were plated at low density (less than 2000 cells/well) in 96-well plates. […]. Seventy two hours post-treatment, cell numbers were determined using 100 μl per well of methylene blue (Sigma M9140) (0.5% in 50:50 Ethanol:water). Stain was incubated at room temperature for 30 minutes before plates were rinsed and dye solubilized in 1% N-lauroyl sarcosine, sodium salt, (Sigma L5125, in PBS) (further details of a methylene blue assay are described below). Plates were read on a microplate reader, measuring the OD at 620 nm.
. The data are shown in Table 1 below and represent a compilation of several different experiments, each performed using the general parameters outlined above, although minor variations may have been employed in some instances.
In one assay, normal human foreskin fibroblasts (HFF), human colon (HCT116, RKO), lung (H460, A549) and breast (MCF7) tumor cell lines were cultured in high glucose DMEM (Life Technologies) containing 10% fetal bovine serum (FBS) at 37° C. in a humidified 5% CO2, 95% air incubator. Cells were harvested using trypsin/EDTA, counted using a haemocytometer, and plated in 100 μL of culture media per well, at the following densities, in a 96-well tissue culture plate (Falcon 3075): HFF 5,000 cells/well, HCT116 3,000 cells/well, RKO 2,500 cells/well, H460 2,500 cells/well, A549 5,000 cells/well, MCF7 4,000 cells/well. The next day, compounds were diluted in low glucose DMEM containing 100 μg/mL gentamicin, at twice the final required concentration, from 10 mM stock solutions in DMSO. 100 μL/well of these dilutions were added to the 100 μL of media currently in the assay plates. Medium containing 0.6% DMSO was added to control wells. The final concentration of DMSO in all wells was 0.3%. Cells were incubated at 37° C., 5% CO2 for 72 h. Medium was removed by aspiration. Cell biomass was estimated by staining cells with 80 μL per well methylene blue (Sigma M9140, 0.5% in 50:50 ethanol:water), and incubation at room temperature for 30-60 min. Stain was removed by aspiration and the plates rinsed by immersion in water, then air-dried. To release stain from the cells, 100 μL of solubilization solution was added (1% N-lauroyl sarcosine, Sodium salt, Sigma L5125, in PBS), and plates were shaken gently for about 30 min. Optical density at 620 nm was measured on a microplate reader. Percent inhibition of cell growth was calculated relative to vehicle treated control wells. […].

[6] = system: MV522; experiment: Cell-Titer-Glo inhibition of cell proliferation, MV522; assay type: cell-based; settings: CellTiter-Glo, 72 h
Procedure: as §1, §2, §3

[7] = system: MCF7; experiment: Cell-Titer-Glo inhibition of cell proliferation, MCF7; assay type: cell-based; settings: Homo sapiens, CellTiter-Glo, 72 h
Procedure: as §1, §2, §3

[8] = system: Hela; experiment: Cell-Titer-Glo inhibition of cell proliferation, Hela; assay type: cell-based; settings: Homo sapiens, CellTiter-Glo, 72 h
Procedure: as §1, §2, §3

[9] = system: ASPC3; experiment: Cell-Titer-Glo inhibition of cell proliferation, ASPC3; assay type: cell-based; settings: CellTiter-Glo, 72 h
Procedure: as §1, §2, §3

[10] = system: PANC-1; experiment: Cell-Titer-Glo inhibition of cell proliferation, PANC-1; assay type: cell-based; settings: Homo sapiens, CellTiter-Glo, 72 h
Procedure: as §1, §2, §3

[11] = system: HT29; experiment: Cell-Titer-Glo inhibition of cell proliferation, HT29; assay type: cell-based; settings: Homo sapiens, HT-29, CellTiter-Glo, 72 h
Procedure: as §1, §2, §3

[12] = system: BXPC3; experiment: Cell-Titer-Glo inhibition of cell proliferation, BXPC3; assay type: cell-based; settings: Homo sapiens, BXPC-3, CellTiter-Glo, 72 h
Procedure: as §1, §2, §3

[13] = system: MiaPaca; experiment: Cell-Titer-Glo inhibition of cell proliferation, MiaPaca; assay type: cell-based; settings: Homo sapiens, MIA PaCa-2, CellTiter-Glo, 72 h
Procedure: as §1, §2, §3

[14] = system: H1299; experiment: Cell-Titer-Glo inhibition of cell proliferation, H1299; assay type: cell-based; settings: Homo sapiens, NCI-H1299, CellTiter-Glo, 72 h
Procedure: as §1, §2, §3

For C[C@@H](Oc1cc(-n2cnc3ccc(CN4CCN(C)CC4)cc32)sc1C(N)=O)c1ccccc1C(F)(F)F [Example 3, 5-{6-[(4-Methylpipiperazin-1-yl)methyl]-1H-benzimidazol-1-yl}-3-{(1R)-1-[2-(trifluoromethyl)phenyl]ethoxy}thiophene-2-carboxamide], the solubility at 24 h [1] was > 100 µM, the IC50 [2] was < 500 nM and the fraction unbound at 6 h, 2000 ng/mL [3] was > 0.05. For the same compound, the IC50 [4] was < 500 nM, the IC50 [5] was < 100 nM and the IC50 [6] was < 500 nM. The IC50 [7] was < 500 nM, the IC50 [8] was < 500 nM and the IC50 [9] was < 500 nM. For the same compound, the IC50 [10] was < 500 nM, the IC50 [11] was < 500 nM and the IC50 [12] was < 500 nM. For the same compound, the IC50 [13] was < 500 nM and the IC50 [14] was < 500 nM.
